Data taken from US20030044946A1 (priority 2001, published 2003).
Where two headings read alike, the source gives them in different places.

Experiments:
[1] = test system: wild type cells (strain DBY746)
ras2Δ (EG252) cells = conditions: ras2 mutants; paraquat 1 mM, 7-day treatment
aconitase = aconitase inactivation after treatment of yeast cells; assay type: cell-based, Saccharomyces cerevisiae; conditions: wild type cells; 1 μM antimycin A or 1 mM paraquat; data not shown
Description: Cells were inoculated at an OD600 of 0.1 in SDC medium and harvested at the indicated times. Whole cell extracts were obtained by glass bead lysis under argon in 50 mM Tris 7.2, 150 mM NaCl, 5 mM EDTA, and 0.2 mM PMSF with an equal volume of 0.5 mm acid washed glass beads, and vortexing for 6 cycles of 30 seconds followed by 2 minutes of cooling. After centrifugation, the supernatants were aliquoted, flash frozen, and stored at −70° C. Because of the instability of 4Fe4S clusters in air, the extraction procedures were performed as rapidly as possible, under an inert atmosphere (argon). Furthermore, aliquots kept at −70° C. were only thawed immediately before the assay. Aconitase activity was measured spectrophotometrically as described (S. Melov, et al., Science 289, 1567-9 (2000)). Briefly, the linear absorbance change at 240 nm (cis-aconitate disappearance) was followed in a reaction mixture containing 1 mM cis-aconitate, 0.5 M NaCl, and 0.1 M Tris 7.4. For iron-sulfur cluster reactivation experiments, 1 mM ferric sulfate and 1 mM sodium sulfide (Na2S) was added to the cuvette containing all the reagents required for the aconitase assay. Activity was measured as described above.

Molecule	effect on survival (viability) of wild type cells [1]	toxicity to wild type cells [1]	survival after paraquat treatment ([1]; Saccharomyces cerevisiae) [%]	initial viability retained after paraquat treatment (ras2Δ (EG252) cells)	toxicity to sod2Δ mutants (sod2Δ mutants; effect on life span)	effect on aconitase (aconitase)	toxicity to sod2Δ mutants (sod2Δ mutants)
C[n+]1ccc(-c2cc[n+](C)cc2)cc1 [paraquat]	early viability loss	toxic	5	over 70%	particularly toxic	reversibly inactivates aconitase	–
antimycin A	early viability loss	toxic	–	–	–	reversibly inactivates aconitase	particularly toxic
